From PubChem BioAssay (NCI)
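Test compounds were applied to cells in 96-well plates for 48 hours at 5 doses. GI50 marks 50% less growth. TGI marks complete inhibition of growth.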

Legend:
Experiment in all cases: DTP human tumour cell line panel, 48 h
[1] = test system: COLO 205 colon
[2] = test system: UO-31 renal
[3] = test system: SN12C renal
[4] = test system: K-562 leukemia
[5] = test system: MOLT-4 leukemia
[6] = test system: KM12 colon
[7] = test system: SF-268 CNS
[8] = test system: DU-145 prostate
[9] = test system: SNB-19 CNS
[10] = test system: MDA-MB-435
[11] = test system: SK-OV-3 ovarian
[12] = test system: NCI-H226 lung
[13] = test system: SF-539 CNS
[14] = test system: HL-60(TB) leukemia
[15] = test system: RPMI-8226 leukemia
[16] = test system: SNB-75 CNS
[17] = test system: HOP-92 NSCLC
[18] = test system: U251 CNS
[19] = test system: OVCAR-4 ovarian
[20] = test system: SK-MEL-28 melanoma
[21] = test system: A549 NSCLC
[22] = test system: BT-549 breast
[23] = test system: UACC-257 melanoma
[24] = test system: EKVX NSCLC
[25] = test system: HCT-15 colon
[26] = test system: RXF 393 renal
[27] = test system: HS 578T breast
[28] = test system: NCI-H460 lung
[29] = test system: NCI-H522 lung
[30] = test system: HCT-116 colon
[31] = test system: CCRF-CEM leukemia
[32] = test system: SF-295 CNS
[33] = test system: CAKI-1 renal
[34] = test system: NCI-H23 lung
[35] = test system: ACHN renal
[36] = test system: UACC-62 melanoma
[37] = test system: 786-0 renal
[38] = test system: PC-3 prostate
[39] = test system: HCC-2998 colon
[40] = test system: NCI/ADR-RES ovarian
[41] = test system: MDA-MB-231 breast
[42] = test system: SK-MEL-2 melanoma
[43] = test system: TK-10 renal
[44] = test system: HT29 colon
[45] = test system: OVCAR-5 ovarian
[46] = test system: LOX IMVI melanoma
[47] = test system: MCF7 breast
[48] = test system: HOP-62 NSCLC
[49] = test system: IGROV1 ovarian
[50] = test system: SR leukemia
[51] = test system: M14 melanoma
[52] = test system: SK-MEL-5 melanoma
[53] = test system: SW-620 colon
[54] = test system: MALME-3M melanoma
[55] = test system: OVCAR-8 ovarian
[56] = test system: T-47D breast
[57] = test system: A498 renal

Question: Which GI50 [1] does the source give for Cc1ccc(C)c(COc2cc(NC(=O)c3ccc4c(c3)OCO4)ccc2N(C)S(C)(=O)=O)c1 here?
Answer: 257 nM

Question: What about the TGI [1] of the same molecule?
Answer: 816 nM

Question: And the GI50 [2]?
Answer: 348 nM

Question: And the TGI [2]?
Answer: > 100000 nM

Question: What about the GI50 [3] of the same molecule?
Answer: 447 nM

Question: And the TGI [3]?
Answer: > 100000 nM

Question: What about the GI50 [4] of the same molecule?
Answer: 44.6 nM

Question: And the TGI [4]?
Answer: > 100000 nM

Question: And the GI50 [5]?
Answer: 228 nM

Question: What about the TGI [5] of the same molecule?
Answer: > 100000 nM

Question: What about the GI50 [6] of the same molecule?
Answer: 77 nM

Question: And the TGI [6]?
Answer: 1060 nM

Question: What about the GI50 [7] of the same molecule?
Answer: 310 nM

Question: And the TGI [7]?
Answer: > 100000 nM

Question: And the GI50 [8]?
Answer: 172 nM

Question: What about the TGI [8] of the same molecule?
Answer: 543 nM

Question: And the GI50 [9]?
Answer: 332 nM

Question: What about the TGI [9] of the same molecule?
Answer: > 100000 nM

Question: What about the GI50 [10] of the same molecule?
Answer: 24.8 nM

Question: And the TGI [10]?
Answer: 71.8 nM

Question: And the GI50 [11]?
Answer: 217 nM

Question: What about the TGI [11] of the same molecule?
Answer: > 100000 nM

Question: And the GI50 [12]?
Answer: 904 nM

Question: What about the TGI [12] of the same molecule?
Answer: > 100000 nM

Question: And the GI50 [13]?
Answer: 118 nM

Question: What about the TGI [13] of the same molecule?
Answer: 790 nM

Question: And the GI50 [14]?
Answer: 38.7 nM

Question: What about the TGI [14] of the same molecule?
Answer: 489 nM

Question: And the GI50 [15]?
Answer: 319 nM

Question: What about the TGI [15] of the same molecule?
Answer: > 100000 nM

Question: And the GI50 [16]?
Answer: 111 nM

Question: And the TGI [16]?
Answer: 1180 nM

Question: What about the GI50 [17] of the same molecule?
Answer: 2590 nM

Question: And the TGI [17]?
Answer: > 100000 nM

Question: And the GI50 [18]?
Answer: 238 nM

Question: And the TGI [18]?
Answer: > 46800 nM

Question: What about the GI50 [19] of the same molecule?
Answer: 648 nM

Question: And the TGI [19]?
Answer: > 100000 nM

Question: What about the GI50 [20] of the same molecule?
Answer: 3740 nM

Question: And the TGI [20]?
Answer: > 100000 nM

Question: What about the GI50 [21] of the same molecule?
Answer: 282 nM

Question: What about the TGI [21] of the same molecule?
Answer: > 36900 nM

Question: What about the GI50 [22] of the same molecule?
Answer: 374 nM

Question: What about the TGI [22] of the same molecule?
Answer: > 100000 nM

Question: What about the GI50 [23] of the same molecule?
Answer: 1870 nM

Question: What about the TGI [23] of the same molecule?
Answer: > 100000 nM

Question: What about the GI50 [24] of the same molecule?
Answer: 466 nM

Question: What about the TGI [24] of the same molecule?
Answer: > 100000 nM

Question: What about the GI50 [25] of the same molecule?
Answer: 127 nM

Question: What about the TGI [25] of the same molecule?
Answer: > 100000 nM

Question: What about the GI50 [26] of the same molecule?
Answer: 128 nM

Question: And the TGI [26]?
Answer: 403 nM

Question: And the GI50 [27]?
Answer: 36.3 nM

Question: What about the TGI [27] of the same molecule?
Answer: 307 nM

Question: And the GI50 [28]?
Answer: 139 nM

Question: What about the TGI [28] of the same molecule?
Answer: 711 nM

Question: What about the GI50 [29] of the same molecule?
Answer: 81.5 nM

Question: What about the TGI [29] of the same molecule?
Answer: 424 nM

Question: What about the GI50 [30] of the same molecule?
Answer: 66.2 nM

Question: And the TGI [30]?
Answer: 1120 nM

Question: And the GI50 [31]?
Answer: 86.6 nM

Question: And the TGI [31]?
Answer: > 100000 nM

Question: And the GI50 [32]?
Answer: 62.1 nM

Question: What about the TGI [32] of the same molecule?
Answer: 439 nM

Question: And the GI50 [33]?
Answer: 160 nM

Question: And the TGI [33]?
Answer: > 100000 nM

Question: And the GI50 [34]?
Answer: 213 nM

Question: What about the TGI [34] of the same molecule?
Answer: > 100000 nM

Question: And the GI50 [35]?
Answer: 420 nM

Question: What about the TGI [35] of the same molecule?
Answer: > 100000 nM

Question: What about the GI50 [36] of the same molecule?
Answer: 179 nM

Question: And the TGI [36]?
Answer: > 100000 nM

Question: What about the GI50 [37] of the same molecule?
Answer: 192 nM

Question: And the GI50 [38]?
Answer: 131 nM

Question: And the TGI [38]?
Answer: > 100000 nM

Question: And the GI50 [39]?
Answer: 132 nM

Question: And the TGI [39]?
Answer: 397 nM

Question: And the GI50 [40]?
Answer: 56.2 nM

Question: What about the TGI [40] of the same molecule?
Answer: 407 nM

Question: And the GI50 [41]?
Answer: 231 nM

Question: And the TGI [41]?
Answer: 798 nM

Question: And the GI50 [42]?
Answer: 595 nM

Question: And the GI50 [43]?
Answer: 402 nM

Question: What about the TGI [43] of the same molecule?
Answer: > 100000 nM

Question: And the GI50 [44]?
Answer: 114 nM

Question: And the TGI [44]?
Answer: 2340 nM

Question: What about the GI50 [45] of the same molecule?
Answer: 513 nM

Question: And the TGI [45]?
Answer: > 100000 nM

Question: And the GI50 [46]?
Answer: 79.3 nM

Question: What about the TGI [46] of the same molecule?
Answer: > 100000 nM

Question: And the GI50 [47]?
Answer: 71.6 nM

Question: What about the TGI [47] of the same molecule?
Answer: > 100000 nM

Question: And the GI50 [48]?
Answer: 570 nM

Question: And the TGI [48]?
Answer: > 100000 nM

Question: What about the GI50 [49] of the same molecule?
Answer: 237 nM

Question: And the TGI [49]?
Answer: > 100000 nM

Question: What about the GI50 [50] of the same molecule?
Answer: 45.7 nM

Question: And the TGI [50]?
Answer: > 100000 nM

Question: And the GI50 [51]?
Answer: 65.7 nM

Question: And the TGI [51]?
Answer: 560 nM

Question: What about the GI50 [52] of the same molecule?
Answer: 172 nM

Question: And the TGI [52]?
Answer: 1670 nM

Question: What about the GI50 [53] of the same molecule?
Answer: 77.8 nM

Question: What about the TGI [53] of the same molecule?
Answer: > 100000 nM

Question: What about the GI50 [54] of the same molecule?
Answer: 111 nM

Question: What about the TGI [54] of the same molecule?
Answer: > 100000 nM

Question: What about the GI50 [55] of the same molecule?
Answer: 286 nM

Question: And the TGI [55]?
Answer: > 100000 nM

Question: And the GI50 [56]?
Answer: 807 nM

Question: And the TGI [56]?
Answer: > 100000 nM

Question: What about the GI50 [57] of the same molecule?
Answer: 122 nM

Question: What about the TGI [57] of the same molecule?
Answer: 853 nM
